# Measured values reported in article PMC13544220, “Glycemic and bodyweight effects of GIPR coding variation reflect differences in surface expression and intrinsic functional impairment” (Science Advances, 2026).
# B1: WT (protein, UniProt P48546 22-466, looked up)
# Gastric inhibitory …: RAETGSKGQTAGELYQRWERYRRECQETLAAAEPPSGLACNGSFDMYVCWDYAAPNATARASCPWYLPWHHHVAAGFVLRQCGSDGQWGLWRDHTQCENPEKNEAFLDQRLILERLQVMYTVGYSLSLATLLLALLILSLFRRLHCTRNYIHINLFTSFMLRAAAILSRDRLLPRPGPYLGDQALALWNQALAACRTAQIVTQYCVGANYTWLLVEGVYLHSLLVLVGGSEEGHFRYYLLLGWGAPALFVIPWVIVRYLYENTQCWERNEVKAIWWIIRTPILMTILINFLIFIRILGILLSKLRTRQMRCRDYRLRLARSTLTLVPLLGVHEVVFAPVTEEQARGALRFAKLGFEIFLSSFQGFLVSVLYCFINKEVQSEIRRGWHHCRLRRSLGEEQRQLPERAFRALPSGSGPGEVPTSRGLSSGTLPGPGNEASRELESYC
# Assays:
# Type in all cases: cell-based, human
# [1] = system: wild-type and variant SNAP-GIPR; assay: cADDis cAMP imaging in AD293 cells, ensemble, expression-matched and per decile;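 as to AD293 100 nM cADDis: Ensemble cells as % of IBMX/FSK response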;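 as to AD293 100 pM cADDis: Ensemble cells as % of IBMX/FSK response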
# How it was run: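 AD293 cells reverse-transfected with wild-type or variant SNAP-GIPR plus cADDis Green Up sensor, variants run in parallel. After 24 h, surface receptor labelled with SNAP-Surface Alexa Fluor 647 (500 nM); single-cell cADDis fluorescence imaged at 37 °C in KRBH, 6 mM glucose, 0.1% BSA. Responses given ensemble, expression-matched by wild-type deciles, or per own decile.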
# [2] = system: wild-type and variant SNAP-GIPR; assay: Constitutive and agonist-mediated internalization, reversible SNAP-tag labelling, AD293 cells; set-up: key to Internalisation, Vehicle / Internalisation, +GIP / Internalisation, GIP-only: % internalization: residual fluorescence after Mesna vs pre-Mesna; Surface expression: unit not given here
# How it was run: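 Percentage internalization calculated as specific SNAP fluorescence remaining after 10 min Mesna exposure, relative to pre-Mesna signal, imaged in TNE buffer (pH 8.6).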
# [3] = system: wild-type and variant SNAP-GIPR; assay: Single-concentration GIP cAMP response by HTRF in AD293 cells; details: for HTRF cAMP: 100 nM GIP, AD293, 30 min, n=8;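 as to AD293 100 nM HTRF: ratio to experiment-wide average response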;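 as to AD293 100 pM HTRF: ratio to experiment-wide average response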
# Description: All variants were tested in parallel on each occasion to control for transfection efficiency differences between experiments.
# [4] = system: wild-type and variant SNAP-GIPR; assay: Surface SNAP-GIPR expression (SNAP-tag labelling) in INS-1 cells; details: Fig 4G; Mean
# How it was run: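 Read-out: whole-cell fluorescence of surface-only SNAP label (Alexa Fluor 647, 500 nM, 10 min, RT), wide-field 20X, several FOVs per well. Flat-field corrected, phase-contrast masked, nontransfected-well signal subtracted; normalized to experiment mean or wild-type.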
# [5] = system: wild-type and variant SNAP-GIPR in Gipr-/- mouse islets; assay: Surface SNAP-GIPR expression in pancreatic islets; details: Fig 6B
# Description: Islets were purified from Gipr^−/− mice as described in the “Islet isolation and culture” section. Islets were transduced with adenoviral wild-type or variant SNAP-tagged GIPR constructs (VectorBuilder) per the manufacturer’s instructions. All variants were tested in parallel on each occasion to control for transduction efficiency. Twenty-four hours posttransduction, whole, intact islets were labeled with SNAP-Surface Alexa Fluor 647 for 15 min at 37°C. Following labeling, the islets were placed in a drop of PBS in the center of a glass-bottom MatTek dish and imaged on a Zeiss LSM 780 inverted confocal microscope fitted with a 63X/1.4 NA oil immersion objective. Receptor surface levels were quantified in Fiji using a macro using full width at half maximum (FWHM) designed by the Facility for Imaging and Light Microscopy (FILM) at Imperial College London and expressed relative to wild-type GIPR. In additional experiments, islets transduced as above and labeled with SNAP-Surface-647 were fixed in 4% paraformaldehyde, permeabilized in 0.5% (v/v) Triton X-100 in PBS (15 min), washed once with PBS and incubated in blocking buffer (PBS and 1% BSA) for 1 hour, and incubated overnight at 4°C in primary antibodies against insulin (1:50; Dako IR002, Agilent Technologies) and glucagon (1:500; G2654, Sigma-Aldrich) in blocking buffer.
molecule,measurement,setting,value
"CC[C@H](C)[C@H](NC(=O)[C@H](CO)NC(=O)[C@H](Cc1ccc(O)cc1)NC(=O)[C@H](CC(=O)O)NC(=O)[C@H](CO)NC(=O)[C@@H](NC(=O)[C@H](Cc1ccccc1)NC(=O)[C@@H](NC(=O)CNC(=O)[C@H](CCC(=O)O)NC(=O)[C@H](C)NC(=O)[C@@H](N)Cc1ccc(O)cc1)[C@@H](C)O)[C@@H](C)CC)C(=O)N[C@@H](C)C(=O)N[C@@H](CCSC)C(=O)N[C@@H](CC(=O)O)C(=O)N[C@@H](CCCCN)C(=O)N[C@H](C(=O)N[C@@H](Cc1c[nH]cn1)C(=O)N[C@@H](CCC(N)=O)C(=O)N[C@@H](CCC(N)=O)C(=O)N[C@@H](CC(=O)O)C(=O)N[C@@H](Cc1ccccc1)C(=O)N[C@H](C(=O)N[C@@H](CC(N)=O)C(=O)N[C@@H](Cc1c[nH]c2ccccc12)C(=O)N[C@@H](CC(C)C)C(=O)N[C@@H](CC(C)C)C(=O)N[C@@H](C)C(=O)N[C@@H](CCC(N)=O)C(=O)N[C@@H](CCCCN)C(=O)NCC(=O)N[C@@H](CCCCN)C(=O)N[C@@H](CCCCN)C(=O)N[C@@H](CC(N)=O)C(=O)N[C@@H](CC(=O)O)C(=O)N[C@@H](Cc1c[nH]c2ccccc12)C(=O)N[C@@H](CCCCN)C(=O)N[C@@H](Cc1c[nH]cn1)C(=O)N[C@@H](CC(N)=O)C(=O)N[C@H](C(=O)N[C@H](C(=O)N[C@@H](CCC(N)=O)C(=O)O)[C@@H](C)O)[C@@H](C)CC)C(C)C)[C@@H](C)CC [GIP, glucose-dependent insulinotropic polypeptide, reference compound]",cADDis cAMP response at low own expression,"[1]; AD293, 100 pM GIP, E354Q (lesser extent A207V, E252D, A268V)",increased responses relative to the wild type
same,"cADDis cAMP response, expression-matched","[1]; AD293, 100 pM GIP, R101H, S64A, R217L, L262H, L304R",at least partly restored to wild-type levels
same,cADDis cAMP response at highest own expression,"[1]; AD293, 100 pM GIP, R136W, R131S, T116R, S64A",wild type–like responses
same,"cADDis cAMP response, expression-matched","[1]; AD293, 100 pM GIP, all variants with reduced ensemble response",still showed LoF
same,"cADDis cAMP response, expression-matched","[1]; AD293, 100 pM and 100 nM GIP, R183Q, R190Q, D66G, E288G",no rescue of function
same,GIP-induced increase in internalization,"[2]; 100 nM GIP, R190Q, R101H, E288G, D66G, R183Q, either/both AD293 and INS-1",statistically significant reductions in internalization
same,internalization,"[2]; 100 nM GIP, most variants, AD293 and INS-1",wild type–like internalization
same,HTRF cAMP,"[3]; A207V, mean",1.3964 vs. experimental average
same,HTRF cAMP,"[3]; A268V, mean",1.283 vs. experimental average
same,cAMP response,"[3]; AD293, 100 pM GIP, E252D and A268V",GoF cAMP responses
same,cAMP response,"[3]; AD293, 100 pM GIP, E354Q",increased response
same,cAMP response,"[3]; AD293, 100 pM GIP, R136W and R131S",reduced cAMP response
same,cAMP response,"[3]; AD293, 100 pM and 100 nM GIP, 10 variants with lowest surface expression",reduced cAMP responses
same,cAMP response at higher concentration,"[3]; AD293, 100 nM GIP, S64A, R217L, L262H",at least a partially restored response
same,HTRF cAMP,"[3]; D66G, mean",0.328 vs. experimental average
same,HTRF cAMP,"[3]; E252D, mean",1.787 vs. experimental average
same,HTRF cAMP,"[3]; E288G, mean",0.3648 vs. experimental average
same,HTRF cAMP,"[3]; E354Q, mean",1.4229 vs. experimental average
same,HTRF cAMP,"[3]; E463Q, mean",1.311 vs. experimental average
same,HTRF cAMP,"[3]; G438S, mean",1.655 vs. experimental average
same,HTRF cAMP,"[3]; I378M, mean",1.479 vs. experimental average
same,HTRF cAMP,"[3]; I403V, mean",1.595 vs. experimental average
same,HTRF cAMP,"[3]; L100F, mean",1.598 vs. experimental average
same,HTRF cAMP,"[3]; L262H, mean",1.14 vs. experimental average
same,HTRF cAMP,"[3]; L262V, mean",1.331 vs. experimental average
same,HTRF cAMP,"[3]; L304R, mean",0.7364 vs. experimental average
same,HTRF cAMP,"[3]; R101H, mean",0.2474 vs. experimental average
same,HTRF cAMP,"[3]; R131S, mean",1.306 vs. experimental average
same,HTRF cAMP,"[3]; R136W, mean",1.324 vs. experimental average
same,HTRF cAMP,"[3]; R183Q, mean",0.2411 vs. experimental average
same,HTRF cAMP,"[3]; R190Q, mean",0.2205 vs. experimental average
same,HTRF cAMP,"[3]; R196G, mean",1.594 vs. experimental average
same,HTRF cAMP,"[3]; R217L, mean",1.142 vs. experimental average
same,HTRF cAMP,"[3]; R300W, mean",1.632 vs. experimental average
same,HTRF cAMP,"[3]; R336P, mean",1.143 vs. experimental average
same,HTRF cAMP,"[3]; R341P, mean",0.1915 vs. experimental average
same,HTRF cAMP,"[3]; R404H, mean",1.255 vs. experimental average
same,HTRF cAMP,"[3]; S64A, mean",1.061 vs. experimental average
same,HTRF cAMP,"[3]; S415G, mean",1.323 vs. experimental average
same,HTRF cAMP,"[3]; S415I, mean",1.113 vs. experimental average
same,HTRF cAMP,"[3]; S447T, mean",1.418 vs. experimental average
same,HTRF cAMP,"[3]; T116R, mean",1.485 vs. experimental average
same,HTRF cAMP,"[3]; WT, mean",1.495 vs. experimental average
B1,AD293 100 pM cADDis,"[1]; Fig S3F, AD293, 100 pM, cADDis, mean",34.2953
same,AD293 100 nM cADDis,"[1]; Fig S3F, AD293, 100 nM, cADDis, mean",38.14
same,Surface expression,[4],1.4278
same,+GIP internalisation (100 nM),"[2]; Fig 4E, GIP 100 nM, Mean",0.9729
same,GIP-specific internalisation (100 nM),"[2]; Fig 4E, GIP 100 nM, Mean",0.2717
same,Constitutive internalisation (100 nM),"[2]; Fig 4E, Mean",0.7012
same,Surface expression,"[2]; Fig 4E, Mean",1.75
same,"Internalisation, +GIP","[2]; Fig S4C, AD293, Mean",55.4256
same,"Internalisation, GIP-only","[2]; Fig S4C, AD293, Mean",15.538
same,"Internalisation, Vehicle","[2]; Fig S4C, AD293, Mean",39.8877
same,Surface SNAP-GIPR expression in pancreatic islets,[5]; replicate 1,1.958
same,Surface SNAP-GIPR expression in pancreatic islets,[5]; replicate 2,2.33
same,Surface SNAP-GIPR expression in pancreatic islets,[5]; replicate 3,2.173
same,Surface SNAP-GIPR expression in pancreatic islets,[5]; replicate 4,3.278
same,Surface SNAP-GIPR expression in pancreatic islets,[5]; replicate 5,3.132
same,AD293 100 pM HTRF,"[3]; Fig S3F, AD293, 100 pM, HTRF, mean",1.584
same,AD293 100 nM HTRF,"[3]; Fig S3F, AD293, 100 nM, HTRF, mean",1.495
